The source of these data is paper PMC3420360 (Bioorganic & medicinal chemistry letters, 2010).

In assay [1] the target is T1, rat TRPV1 (Rattus norvegicus, UniProt O35433). Kind of assay: functional 45Ca2+ uptake assay, agonism. It counts as cell-based. Particulars: for functional pattern of agonism/antagonism: 45Ca2+ uptake, rat TRPV1 in CHO cells, result in words; for fold less potent than RTX for functional activity: agonism EC50 versus RTX.
The target of assay [2] is T1, rat TRPV1. It counts as cell-based. Particulars: Ki(ant) versus 5'-iodo RTX under the same assay conditions.

T1 sequence (O35433 whole entry): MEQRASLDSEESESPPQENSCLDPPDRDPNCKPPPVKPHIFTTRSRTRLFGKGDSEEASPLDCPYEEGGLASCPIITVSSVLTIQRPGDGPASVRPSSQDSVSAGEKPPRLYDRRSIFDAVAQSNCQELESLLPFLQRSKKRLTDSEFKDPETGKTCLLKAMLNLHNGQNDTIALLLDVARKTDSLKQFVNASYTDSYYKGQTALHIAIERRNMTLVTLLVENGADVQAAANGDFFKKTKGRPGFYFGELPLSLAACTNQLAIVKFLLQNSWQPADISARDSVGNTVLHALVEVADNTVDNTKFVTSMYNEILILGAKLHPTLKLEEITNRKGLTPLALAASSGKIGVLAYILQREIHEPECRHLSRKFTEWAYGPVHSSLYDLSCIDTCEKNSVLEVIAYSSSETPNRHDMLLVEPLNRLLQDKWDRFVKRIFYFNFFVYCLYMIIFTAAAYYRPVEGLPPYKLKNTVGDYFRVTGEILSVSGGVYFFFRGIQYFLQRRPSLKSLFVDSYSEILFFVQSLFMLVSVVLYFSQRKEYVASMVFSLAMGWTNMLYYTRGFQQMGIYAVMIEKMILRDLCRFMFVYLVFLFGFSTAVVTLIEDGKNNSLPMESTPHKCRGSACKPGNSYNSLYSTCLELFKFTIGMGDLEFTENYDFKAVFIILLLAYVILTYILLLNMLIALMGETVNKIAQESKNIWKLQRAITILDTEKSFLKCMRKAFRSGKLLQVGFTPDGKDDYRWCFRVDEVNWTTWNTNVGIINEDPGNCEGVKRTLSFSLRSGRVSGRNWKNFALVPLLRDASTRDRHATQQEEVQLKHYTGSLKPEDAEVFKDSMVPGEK

Regarding `C=C(C)[C@@]12C[C@@H](C)C34OC(Cc5ccccc5)(OC1[C@@H]3C=C(COC(=O)Cc1cc(I)c(O)c(OC)c1)C[C@]1(O)C(=O)C(C)=C[C@@H]41)O2` (some centres unmarked) [compound 2, 5-iodo RTX, reference compound], on rat TRPV1 [1], the “functional pattern of agonism/antagonism” value was “full antagonist”. Take `C=C(C)[C@@]12C[C@@H](C)C34OC(Cc5ccccc5)(OC1[C@@H]3C=C(COC(=O)Cc1cc(F)c(O)c(OC)c1)C[C@]1(O)C(=O)C(C)=C[C@@H]41)O2` (some centres unmarked) [compound 31]: on rat TRPV1 [1], the “functional pattern of agonism/antagonism” value is “full agonists” and the “fold less potent than RTX for functional activity” value amounted to 9 fold. For `C=C(C)[C@@]12C[C@@H](C)C34OC(Cc5ccccc5)(OC1[C@@H]3C=C(COC(=O)Cc1cc(Cl)c(O)c(OC)c1)C[C@]1(O)C(=O)C(C)=C[C@@H]41)O2` (some centres unmarked) [compound 32], in that order: “full agonists” and 21 fold.

With `C=C(C)[C@@]12C[C@@H](C)C34OC(Cc5ccccc5)(OC1[C@@H]3C=C(COC(=O)Cc1cc(Br)c(O)c(OC)c1)C[C@]1(O)C(=O)C(C)=C[C@@H]41)O2` (some centres unmarked) [compound 33], the “functional pattern of agonism/antagonism” value at rat TRPV1 [1] was “partial antagonist”. Still for that read-out and setting: the result for `C=C(C)[C@@]12C[C@@H](C)C34OC(Cc5ccccc5)(OC1[C@@H]3C=C(COC(=O)Cc1cc(Br)cc(Br)c1)C[C@]1(O)C(=O)C(C)=C[C@@H]41)O2` (some centres unmarked) [compound 35] reads “full agonist”.

Turning to `C=C(C)[C@@]12C[C@@H](C)C34OC(Cc5ccccc5)(OC1[C@@H]3C=C(COC(=O)Cc1ccc(N)c(OC)c1)C[C@]1(O)C(=O)C(C)=C[C@@H]41)O2` (some centres unmarked) [compound 36, 4-amino RTX], the “functional pattern of agonism/antagonism” value at rat TRPV1 [1] is listed as “potent full agonism”. Moreover, the “fold less potent than RTX (Ki and EC50)” value on rat TRPV1 [1] (both binding Ki and agonism EC50 compared with RTX) is listed as 2–3 fold. Take `C=C(C)[C@@]12C[C@@H](C)C34OC(Cc5ccccc5)(OC1[C@@H]3C=C(COC(=O)Cc1cc(F)c(N)c(OC)c1)C[C@]1(O)C(=O)C(C)=C[C@@H]41)O2` (some centres unmarked) [compound 37]: the “functional pattern of agonism/antagonism” value on rat TRPV1 [1] is reported as “full agonist”. Besides, at rat TRPV1 [1] (agonism EC50 versus 4-amino RTX (36)), the “fold less potent than the parent 36 (agonism)” value is 2.5 fold.

For `C=C(C)[C@@]12C[C@@H](C)C34OC(Cc5ccccc5)(OC1[C@@H]3C=C(COC(=O)Cc1cc(Cl)c(N)c(OC)c1)C[C@]1(O)C(=O)C(C)=C[C@@H]41)O2` (some centres unmarked) [compound 38], the “functional pattern of agonism/antagonism” value at rat TRPV1 [1] is reported as “partial antagonist”. With `C=C(C)[C@@]12C[C@@H](C)C34OC(Cc5ccccc5)(OC1[C@@H]3C=C(COC(=O)Cc1cc(Br)c(N)c(OC)c1)C[C@]1(O)C(=O)C(C)=C[C@@H]41)O2` (some centres unmarked) [compound 39, 5-bromo-4-amino RTX], on rat TRPV1 [2], the “fold more potent than I-RTX as antagonist” value came out at 4 fold. At rat TRPV1 [1], the “functional pattern of agonism/antagonism” value is “full antagonist”.
